Test results taken from PubChem BioAssay AID1871 (NMMLSC, 2009).
Active and inactive are the calls of the source. No rule for the calls is given here.

Target: Regulator of G-protein signaling 7 (Homo sapiens) (UniProt P49802)
Test: RGS7-Galphao binding modulators, dose response, biochemical, multiplexed bead flow cytometry (AID 1871)
Conditions: bead-based flow cytometry

Chain of Regulator of G-protein signaling 7 (Homo sapiens) (P49802 whole entry, looked up): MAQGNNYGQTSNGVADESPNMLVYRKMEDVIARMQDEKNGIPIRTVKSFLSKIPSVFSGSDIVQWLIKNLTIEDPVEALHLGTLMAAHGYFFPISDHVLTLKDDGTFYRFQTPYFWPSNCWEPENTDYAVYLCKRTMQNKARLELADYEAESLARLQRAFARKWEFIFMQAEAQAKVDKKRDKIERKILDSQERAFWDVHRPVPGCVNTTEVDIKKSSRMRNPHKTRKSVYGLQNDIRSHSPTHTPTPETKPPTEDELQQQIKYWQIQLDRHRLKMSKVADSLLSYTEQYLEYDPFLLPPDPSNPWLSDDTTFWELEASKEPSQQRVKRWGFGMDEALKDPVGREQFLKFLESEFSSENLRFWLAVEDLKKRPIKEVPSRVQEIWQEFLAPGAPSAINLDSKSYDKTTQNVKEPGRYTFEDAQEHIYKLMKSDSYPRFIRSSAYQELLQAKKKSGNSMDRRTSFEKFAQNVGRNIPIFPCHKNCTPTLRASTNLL

SMILES	EC50
CCOC(=O)C1=C(C)NC(C)=C(C(=O)OCCNC(=O)c2cccnc2)C1c1cccc([N+](=O)[O-])c1 (stereo not drawn)	> 30 µM (inactive)
COc1ccc(Br)cc1/C=N/Nc1cccc(C(=O)O)c1	> 30 µM (inactive)
CCOC(=O)N=Nc1c(O)n(C)c2ccccc12	> 30 µM (inactive)
NS(=O)(=O)c1ccc(N/N=C/c2ccc(O)c(O)c2O)c([N+](=O)[O-])c1	1.95 µM
CC(C)Sc1nc2ccc(N3C(=O)C4CCCCC4C3=O)cc2s1 (stereo not drawn)	> 30 µM (inactive)
CN(C)[C@@H]1C(=O)C(C(=O)NCN2CCCC2)=C(O)[C@@]2(O)C(=O)C3=C(O)c4c(O)cccc4[C@@](C)(O)C3CC12 (stereo partly drawn)	4.35 µM
O=c1[nH]c(=S)n(Cc2ccco2)c(O)c1C=NCc1cccs1	> 30 µM (inactive)
O=C1CCCC2=C1C(c1cccs1)n1ncnc1N2 (stereo not drawn)	> 30 µM (inactive)
CCOC(=O)/C(C(=O)Nc1ccccc1Cl)=C1/NC(C)(C)Cc2ccccc21	> 30 µM (inactive)

Same assay, conditions: bead-based flow cytometry, measured here: Ki for RGS7-Galphao

SMILES	Ki [µM]
COc1ccc(C2=CC(=O)C=CC2=O)cc1	8.17
CC1(C)OC(=O)C(=Cc2ccc(-c3ccc(S(N)(=O)=O)cc3)o2)C(=O)O1	4.87
O=C1CCC(=O)N(O)CCCCCNC(=O)CCC(=O)N(O)CCCCCNC(=O)CCC(=O)N(O)CCCCCN1	2.01
Nc1c(C(=O)NCC2CCCO2)sc2nc3c(c(-c4ccco4)c12)CC/C3=C\c1ccco1 (stereo not drawn)	3.12
O=C(COc1ccccc1C(=O)N/N=C\c1ccc(O)c(O)c1)N/N=C/c1ccc(O)c(O)c1	1.94
O=C(O)C[C@@H]1C(=O)O[C@@H]2C(COC(=O)c3cc(O)c(O)c(O)c3)O[C@@H](OC(=O)c3cc(O)c(O)c(O)c3)[C@@H](OC(=O)c3cc(O)c(O)c4c3[C@H]1[C@H](O)C(=O)O4)[C@H]2OC(=O)c1cc(O)c(O)c(O)c1 (stereo partly drawn)	0.51
CCC(=O)NC(c1ccc(C)cc1)c1cc([N+](=O)[O-])c2cccnc2c1O (stereo not drawn)	11.4
NS(=O)(=O)c1ccc(N/N=C/c2ccc(O)c(O)c2O)c([N+](=O)[O-])c1	1.66
CCOc1ccccc1-c1c2cc(O)c(=O)cc-2oc2cc(O)c(O)cc12	6.17
COc1ccc(OC)c(CCNC(=O)Cn2sc3nc(C)cc(C)c3c2=O)c1	3.45
O=C1C(Cl)=C(N2CCCCC2)C(=O)C(Cl)=C1c1cnc(N2CCCCC2)s1	0.71
CC(=O)N(O)CCCCCNC(=O)CCC(=O)N(O)CCCCCNC(=O)CCC(=O)N(O)CCCCCN	1.05
CN(C)c1ncc(C2=C(Cl)C(=O)C(N3CCCC3)=C(Cl)C2=O)s1	1.15
CCC(=O)NC1=C(Cl)C(=O)C(NC(=O)CC)=C(Cl)C1=O	3.33
CN(C)[C@@H]1C(=O)C(C(=O)NCN2CCCC2)=C(O)[C@@]2(O)C(=O)C3=C(O)c4c(O)cccc4[C@@](C)(O)C3CC12 (stereo partly drawn)	3.7
O=C(Cc1csc(N2CCOCC2)n1)N/N=C/c1ccc(O)c(O)c1O	7.67
O=c1c2ccccc2sn1-c1ccc(S(=O)(=O)N2CCCC2)cc1	0.53
O=C(O[C@@H]1OC2COC(=O)c3cc(O)c(O)c(O)c3-c3c(cc(O)c(O)c3O)C(=O)O[C@@H]([C@H]1O)[C@@H]2O)c1cc(O)c(O)c(O)c1	0.98
O=C1OCC2OC(O)C(O)C(O)C2OC(=O)c2cc(O)c(O)c(O)c2-c2c(O)c(O)c3oc(=O)c4c(c(O)c(O)c5oc(=O)c2c3c54)-c2c1cc(O)c(O)c2O (stereo not drawn)	1.75
O=[N+]([O-])c1ccc(Sc2cccc[n+]2[O-])c2nonc12	4.06
CCN(CC)S(=O)(=O)c1cccc(C(=O)N/N=C/c2ccc(O)c(O)c2O)c1	3.3
CCCNC(=O)Cn1sc2nc(C)cc(C)c2c1=O	4.08
C/C(=N/NC(=O)c1cc(O)c(O)c(O)c1)c1ccc([N+](=O)[O-])cc1	18.1
CCN=c1scc(C)n1/N=C/c1ccc(O)c(O)c1O	11.9
O=C(OCC1O[C@@H](OC(=O)c2cc(O)c(O)c(O)c2)[C@@H](OC(=O)c2cc(O)c(O)c(O)c2)[C@@H](OC(=O)c2cc(O)c(O)c(O)c2)[C@@H]1OC(=O)c1cc(O)c(O)c(O)c1)c1cc(O)c(O)c(O)c1 (stereo partly drawn)	0.37
COCCCNC(=O)c1ccc2c3c(onc13)-c1ccccc1C2=O	1.48
CCNc1ccc2noc3c2c1C(=O)c1ccccc1-3	22.2
CN1CCN(C2=C(Cl)C(=O)C(c3cnc(N4CCCCC4)s3)=C(Cl)C2=O)CC1	0.15
CN=c1scc(C)n1/N=C/c1ccc(O)c(O)c1O	8.75
